Test results: patent US12558356B2, “Immunophilin binding agents and uses thereof” (The Regents of the University of California, priority 2019, dated 2026)
Read-outs that look alike come from different tables or passages of the source.

What was measured:
[1] = system: K562 cells; assay: Growth inhibition of K562 cells; type: cell-based
From the text: The unique dependency of FK506-dasatinib on FKBP proteins implied that it may be exploited to modulate the function of these molecules. […]. Meanwhile, the blocker compound […] dasatinib-treated samples (FIG. 13A, lanes 2 and 5). […].

[2] = system: Jurkat cells; assay: Drug washout, phosphotyrosine recovery (residence time in cells); type: cell-based; conditions: 100 nM for 1 h, then drug removed
[3] = system: Jurkat cells; assay: CD3 crosslinking (OKT3)-triggered T cell activation, phosphotyrosine Western blot; type: cell-based; conditions: for Total phospho-tyrosine level and phosphorylation of TCR signaling proteins: 100 nM
[4] = system: 139 kinases captured by the probe in Jurkat cells; assay: XO44 chemoproteomic probe kinome occupancy in live cells; type: cell-based; conditions: 100 nM, among 139 kinases captured by XO44 in Jurkat cells
[5] = biological target: T1, FKBP12 (Homo sapiens (Human), UniProt P62942); assay: FKBP12 binding
T1 sequence (P62942 whole entry): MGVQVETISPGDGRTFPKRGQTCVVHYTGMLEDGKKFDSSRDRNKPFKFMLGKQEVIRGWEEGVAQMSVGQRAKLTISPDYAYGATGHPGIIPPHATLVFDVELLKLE

[6] = biological target: T1, FKBP12; assay: FKBP12 binding assay (fluorescence polarization)
[7] = biological target: Src, Csk and DDR2
[8] = system: panel of 485 protein kinases; assay: Kinase selectivity profiling; type: biochemical; conditions: 485 kinases, 10 nM inhibitor, 10 μM FKBP12
[9] = biological target: T2, Src kinase domain and FKBP12 (Homo sapiens (Human), UniProt P12931+P62942); assay: Ternary complex formation by size exclusion chromatography; type: binding; conditions: ~50 kDa complex
T2 sequence (P12931 whole entry, looked up, species assumed, the tested form may be a part): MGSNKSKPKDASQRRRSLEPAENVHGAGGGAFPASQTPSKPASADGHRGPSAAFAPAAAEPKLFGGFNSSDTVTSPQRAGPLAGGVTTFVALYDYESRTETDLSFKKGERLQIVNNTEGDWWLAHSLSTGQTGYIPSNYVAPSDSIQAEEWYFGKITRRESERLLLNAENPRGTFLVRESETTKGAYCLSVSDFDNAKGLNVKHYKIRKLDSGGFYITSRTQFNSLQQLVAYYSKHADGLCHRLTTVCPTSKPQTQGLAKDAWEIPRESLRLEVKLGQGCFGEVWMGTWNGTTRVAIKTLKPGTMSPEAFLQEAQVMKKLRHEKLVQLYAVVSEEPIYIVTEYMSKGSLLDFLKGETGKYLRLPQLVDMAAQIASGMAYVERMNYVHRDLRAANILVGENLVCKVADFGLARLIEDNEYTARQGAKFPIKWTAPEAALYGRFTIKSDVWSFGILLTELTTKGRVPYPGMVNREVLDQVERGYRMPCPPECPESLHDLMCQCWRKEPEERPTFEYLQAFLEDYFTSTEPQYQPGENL
T2 sequence (P62942 whole entry, looked up, species assumed, the tested form may be a part): as the sequence (P62942 whole entry) above

[10] = biological target: Src (Homo sapiens (Human), UniProt P12931); type: biochemical
Chain of Src (P12931 whole entry, species assumed): as the sequence (P12931 whole entry, looked up, species assumed, the tested form may be a part) above

[11] = biological target: DDR2 (Homo sapiens (Human), UniProt Q16832); assay: In vitro kinase assay, ATP at apparent Km; type: biochemical
Chain of DDR2 (Q16832 22-855, species assumed): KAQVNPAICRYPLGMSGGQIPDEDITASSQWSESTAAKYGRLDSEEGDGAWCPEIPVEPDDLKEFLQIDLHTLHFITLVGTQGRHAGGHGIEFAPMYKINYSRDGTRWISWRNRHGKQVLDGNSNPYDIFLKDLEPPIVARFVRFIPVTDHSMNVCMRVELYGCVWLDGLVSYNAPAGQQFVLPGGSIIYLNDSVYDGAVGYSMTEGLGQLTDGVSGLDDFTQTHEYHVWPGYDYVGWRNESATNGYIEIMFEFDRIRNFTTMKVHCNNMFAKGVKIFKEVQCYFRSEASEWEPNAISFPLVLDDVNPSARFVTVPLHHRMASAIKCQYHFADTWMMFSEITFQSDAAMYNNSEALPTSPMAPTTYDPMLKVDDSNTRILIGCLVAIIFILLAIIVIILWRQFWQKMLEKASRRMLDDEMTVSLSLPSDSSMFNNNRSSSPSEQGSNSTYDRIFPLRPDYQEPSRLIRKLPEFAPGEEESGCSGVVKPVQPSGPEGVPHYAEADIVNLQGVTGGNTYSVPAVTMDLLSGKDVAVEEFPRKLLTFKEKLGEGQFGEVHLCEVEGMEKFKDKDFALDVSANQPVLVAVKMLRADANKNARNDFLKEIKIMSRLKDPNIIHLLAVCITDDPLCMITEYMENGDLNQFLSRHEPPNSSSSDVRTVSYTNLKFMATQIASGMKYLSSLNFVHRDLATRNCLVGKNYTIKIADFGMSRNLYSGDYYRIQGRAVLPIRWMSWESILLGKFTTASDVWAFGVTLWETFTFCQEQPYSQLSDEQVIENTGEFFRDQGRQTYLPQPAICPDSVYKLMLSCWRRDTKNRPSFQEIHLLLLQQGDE

[12] = biological target: Csk (Homo sapiens (Human), UniProt P41240); assay: In vitro kinase assay, ATP at apparent Km; type: biochemical
Chain of Csk (P41240 whole entry, species assumed): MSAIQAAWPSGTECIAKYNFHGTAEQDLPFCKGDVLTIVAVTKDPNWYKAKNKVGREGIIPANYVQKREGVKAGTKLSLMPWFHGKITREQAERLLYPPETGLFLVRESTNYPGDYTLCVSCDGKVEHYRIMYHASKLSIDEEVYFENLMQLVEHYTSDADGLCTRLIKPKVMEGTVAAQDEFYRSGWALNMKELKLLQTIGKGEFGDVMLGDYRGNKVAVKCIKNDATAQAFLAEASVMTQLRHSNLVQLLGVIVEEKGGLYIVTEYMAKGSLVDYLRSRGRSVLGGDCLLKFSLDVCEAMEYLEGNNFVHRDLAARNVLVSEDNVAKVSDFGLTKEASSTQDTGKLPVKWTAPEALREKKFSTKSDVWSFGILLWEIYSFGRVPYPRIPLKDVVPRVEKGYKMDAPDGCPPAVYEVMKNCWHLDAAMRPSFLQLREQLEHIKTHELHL

[13] = system: K562 cells; assay: Growth inhibition of K562 cells; type: cell-based; remark: listed apart in the source
[14] = biological target: T2, Src kinase domain and FKBP12; assay: Ternary complex formation of Src, FKBP12 and compound; type: binding
Procedure: Fractions of 0.5 mL were collected and analyzed by SDS-PAGE.
Pulldown was performed with Jurkat cell lysate (1 mg/mL, 200 μL), supplemented with 2 μg HA-FKBP12.

[15] = biological target: T2, Src kinase domain and FKBP12; assay: Differential scanning fluorimetry; type: binding
[16] = biological target: Src / HA-FKBP12 (Homo sapiens (Human), UniProt P12931+P62942); assay: Co-immunoprecipitation of Src with HA-FKBP12 in Jurkat cell lysates; type: binding
Chain of Src / HA-FKBP12 (P12931 whole entry, looked up): as the sequence (P12931 whole entry, looked up, species assumed, the tested form may be a part) above
Chain of Src / HA-FKBP12 (P62942 whole entry, looked up): as the sequence (P62942 whole entry) above

[17] = system: p-Tyr signaling in Jurkat cells; assay: Phosphotyrosine / TCR signaling in Jurkat cells (Western blot); type: cell-based
Procedure: Jurkat cells (1×10^6/mL) were treated with 100 nM of the indicated compounds for 1 h, then were washed 3 times with PBS and resuspended in culture media. Samples were taken at the indicated time points and lysed immediately.

[18] = system: MCF7 cells; assay: FKBP dependence of Rapamycin/RapaLink-1 function in MCF7 cells; type: cell-based; conditions: MCF7 cells dosed at 50% confluency, 37° C., 24 h
Procedure: FIG. 4. […] MCF7 cells dosed at 50% confluency, 37° C., 24 h.

[19] = system: glioblastoma PDX; conditions: mice; Fan, Q. et al., 2017, Cancer Cell; cited from earlier work
[20] = system: mTOR signaling in brain and skeletal muscle; assay: In vivo brain/periphery mTOR inhibition in mouse model, blocker combined with rapamycin or RapaLink-1
[21] = system: p-S6 level in MCF7 cells; assay: Western blot of p-S6 level in MCF7 cells after combination treatment with Rapa/Rapalink and candidate compound (blockade score); type: cell-based; conditions: 10 nM Rapalink + 10 μM candidate compound, 24 h, p-S6 level as fraction of DMSO control
[22] = biological target: KRAS^G12C and CypA (Homo sapiens (Human), UniProt P01116+P62937, G12C); assay: Complex of labeled KRAS G12C with CypA; type: binding
[23] = system: Ras•Raf; assay: Ras•Raf binding pulldown; conditions: 100 nM KRAS
Procedure: FIG. 57. […] Pulldown conditions: 100 nM KRAS, 50 μg/mL BSA, 20 mM HEPES 7.5, 150 mM NaCl, 5 mM MgCl2, 1 mM […], 1% NP-40. GppNHp loaded proteins were prepared by EDTA-mediated nucleotide exchange.

[24] = biological target: Ras•GDP / Sos (Homo sapiens (Human), UniProt P01112+P62937, M72C); assay: HRAS/CypA ternary complex and Sos-mediated nucleotide exchange; type: biochemical
Procedure: FIG. 56. […] Assay conditions: 1 μM Ras•GDP, 1 μM Mant-GDP, 20 mM EPES 7.5, 150 mM NaCl, 10 mM EDTA or 1 μM Sos. 95A is synonymous to ZZY06-031.

[25] = Jurkat cells stimulated with OKT3
[26] = 10 μM recombinant FKBP12 in assay buffer
[27] = standard assay conditions, no FKBP12

## Cc1nc(Nc2ncc(C(=O)Nc3c(C)cccc3Cl)s2)cc(N2CCN(CCO)CC2)n1 [Dasatinib, dasatinib, reference compound]
[1]; Homo sapiens, K562, absent ZZY05-026 (RapaBlock)
  IC50: 0.063 nM
[1]; Homo sapiens, K562, with 10 μM RapaBlock
  IC50: 0.16 nM
[2]
  Time after drug washout to restored phosphotyrosine signal: ≤ 1 h
[3]; [25]
  Total phospho-tyrosine level and phosphorylation of TCR signaling proteins: dampened
[4]
  Number of kinases inhibited >70%: 9

## CO[C@H]1C[C@@H](C)C/C(C)=C/[C@@H](CCCC(=O)N2CCN(c3cc(Nc4ncc(C(=O)Nc5c(C)cccc5Cl)s4)nc(C)n3)CC2)C(=O)C[C@H](O)[C@@H](C)[C@@H](/C(C)=C/[C@@H]2CC[C@@H](O)[C@H](OC)C2)OC(=O)[C@@H]2CCCCN2C(=O)C(=O)[C@]2(O)O[C@H]1[C@@H](OC)C[C@H]2C [FK506-dasatinib]
[5]
  FKBP12 binding: maintains potent FKBP12 binding
[6]; fluorescence polarization assay, read-out: Kd (binding to FKBP12)
  Kd: 23 nM
[7]
  kinase inhibition: attenuated kinase inhibition
[8]
  Number of kinases inhibited >70% by both inhibitors: 23
[9]
  Complex formation of Src kinase domain and FKBP12: induced the formation of a stable complex
[10]; [26]
  Potency of inhibition upon FKBP12 supplementation: equipotent
[10]; [27]
  IC50 compared to dasatinib: more than ten-fold greater
[11]; 10 μM recombinant FKBP12, 1 μM inhibitor
  Extent of kinase inhibition at 1 μM: failing to fully inhibit
[11]; [26]
  Potency of inhibition upon FKBP12 supplementation: inferior to dasatinib
[11]; [27]
  IC50 compared to dasatinib: more than ten-fold greater
[12]; [26]
  Potency of inhibition upon FKBP12 supplementation: equipotent
[12]; [27]
  IC50 compared to dasatinib: more than ten-fold greater
[1]; 10 μM RapaBlock
  Fold increase of IC50 on addition of RapaBlock: > 200 fold
[1]; absent ZZY05-026 (RapaBlock)
  IC50: 0.053 nM
[1]; with 10 μM RapaBlock
  IC50: 10.2 nM
[13]
  concentration inhibiting growth of K562 cells: sub-nanomolar
[13]; with RapaBlock
  growth inhibitory activity in presence of RapaBlock: diminished by RapaBlock
[2]
  Time after drug washout to restored phosphotyrosine signal: > 24 h
[14]
  ternary complex formation: forms a stable ternary complex
[15]
  Stabilization of both proteins toward thermal denaturation: to a greater extent than dasatinib alone
[3]; 100 nM FK506-dasatinib + 10 μM RapaBlock
  Inhibition of phosphotyrosine signaling in the presence of blocker: completely neutralized
[3]; [25]
  Total phospho-tyrosine level and phosphorylation of TCR signaling proteins: dampened
  Lowest effective concentration: ≤ 10 nM
[3]; Jurkat cells stimulated with OKT3, read-out: EC50 (phosphotyrosine signal)
  EC50: 3.4 nM
[16]
  Co-immunoprecipitation of Src with HA-FKBP12: co-immunoprecipitated
[4]
  Number of kinases inhibited >70%: 9
[17]
  inhibition of TCR signaling / cellular activity: potently inhibits TCR signaling
[17]; Jurkat cells, 1 h treatment then washout, monitored over 24 h
  cellular retention time: long cellular retention time

## CO[C@@H]1C[C@@H]2CC[C@@H](C)[C@@](O)(O2)C(=O)C(=O)N2CCCC[C@@H]2C(=O)O[C@H]([C@H](C)C[C@H]2CC[C@H](OCCOCc3cn(CCOCCOCCOCCOCCOCCOCCOCCOCCC(=O)NCCCCn4nc(-c5ccc6oc(N)nc6c5)c5c(N)ncnc54)nn3)[C@H](OC)C2)CC(=O)[C@H](C)/C=C(\C)[C@H](O)[C@@H](OC)C(=O)[C@H](C)C[C@H](C)/C=C/C=C/C=C/1C [RapaLink-1]
[18]
  dependence of function on FKBP: FKBP is essential for the function
[19]
  growth of glioblastoma PDX: suppresses growth

## CO[C@H]1C[C@@H]2CC[C@@H](C)[C@@](O)(O2)C(=O)C(=O)N2CCCC[C@H]2C(=O)O[C@H]([C@H](C)C[C@@H]2CC[C@@H](O)[C@H](OC)C2)CC(=O)[C@H](C)/C=C(\C)[C@@H](O)[C@@H](OC)C(=O)[C@H](C)C[C@H](C)/C=C/C=C/C=C/1C [Rapamycin, rapamycin]
[18]
  dependence of function on FKBP: FKBP is essential for the function

## CO[C@H]1C/C(C)=C/[C@@H](CCCc2ccccn2)C(=O)C[C@H](O)[C@@H](C)[C@@H](/C(C)=C/[C@@H]2CC[C@@H](O)[C@H](OC)C2)OC(=O)[C@@H]2CCCCN2C(=O)C(=O)[C@]2(O)O[C@H]([C@@H](OC)C1)[C@@H](OC)C[C@H]2C [ZZY05-085]
[6]
  Kd: 1.5 nM
[20]; combination with Rapalink-1, dose not given, brain
  In Vivo: Appears to have blocked Rapalink-1 in brain
[21]
  RapaLink-1 Blockade: 3 (>70%)

## CO[C@H]1C/C(C)=C/[C@@H](CCCc2cccc[n+]2[O-])C(=O)C[C@H](O)[C@@H](C)[C@@H](/C(C)=C/[C@@H]2CC[C@@H](O)[C@H](OC)C2)OC(=O)[C@@H]2CCCCN2C(=O)C(=O)[C@]2(O)O[C@H]([C@@H](OC)C1)[C@@H](OC)C[C@H]2C [ZZY05-092 / ZZY06-041]
[6]; read-out: Kd FKBP12
  Kd: 2.5 nM
[20]; 1 mg/kg Rapalink-1 + 40 mg/kg compound, muscle and brain
  In Vivo: Dose: 1 mg/kg Rapalink-1 + 40 mg/kg ZZY05- 092 Blocks Rapalink-1 in muscle; Potentiates Rapalink-1 in brain
[21]
  RapaLink-1 Blockade: 3 (>70%)

## C=CC(=O)N1CCN(c2nc(NCCC(=O)NCCNC(=O)CCC[C@@H](C)[C@@H](O)[C@H]3C(=O)N[C@@H](CC)C(=O)N(C)CC(=O)N(C)[C@@H](CC(C)C)C(=O)N[C@@H](C(C)C)C(=O)N(C)[C@@H](CC(C)C)C(=O)N[C@@H](C)C(=O)N[C@H](C)C(=O)N(C)[C@@H](CC(C)C)C(=O)N(C)[C@@H](CC(C)C)C(=O)N(C)[C@@H](C(C)C)C(=O)N3C)nc3c(F)c(-c4c(O)cccc4F)c(Cl)cc23)CC1 [ZZY07-014]
[22]
  melting curve of KRAS•CypA•compound complex: 2-stage melting curve

## C=CC(=O)Nc1cc(Cl)cc(NC(=O)c2cnn(-c3ccc(OCC(=O)N4CCN(C(=O)CCC[C@@H](C)[C@@H](O)[C@H]5C(=O)N[C@@H](CC)C(=O)N(C)CC(=O)N(C)[C@@H](CC(C)C)C(=O)N[C@@H](C(C)C)C(=O)N(C)[C@@H](CC(C)C)C(=O)N[C@@H](C)C(=O)N[C@H](C)C(=O)N(C)[C@@H](CC(C)C)C(=O)N(C)[C@@H](CC(C)C)C(=O)N(C)[C@@H](C(C)C)C(=O)N5C)CC4)cc3)c2C(F)(F)F)c1 [ZZY08-058]
[23]
  Ras•Raf binding of HRAS•CypA•compound ternary complex: does not seem to impair Ras•Raf binding
[24]
  ternary complex formation with HRAS and CypA: forms a ternary complex
[24]; 1 μM Ras•GDP, 1 μM Mant-GDP, 10 mM EDTA or 1 μM Sos
  Sos-mediated nucleotide exchange: inhibits Sos-mediated nucleotide exchange
